Data: PMC12552596 (Nature Communications, 2025)

Molecular target: T1, human glucose-6-phosphate transporter (G6PT) (Homo sapiens, UniProt O43826, W138F)
T1 sequence (O43826 1-429 W138F): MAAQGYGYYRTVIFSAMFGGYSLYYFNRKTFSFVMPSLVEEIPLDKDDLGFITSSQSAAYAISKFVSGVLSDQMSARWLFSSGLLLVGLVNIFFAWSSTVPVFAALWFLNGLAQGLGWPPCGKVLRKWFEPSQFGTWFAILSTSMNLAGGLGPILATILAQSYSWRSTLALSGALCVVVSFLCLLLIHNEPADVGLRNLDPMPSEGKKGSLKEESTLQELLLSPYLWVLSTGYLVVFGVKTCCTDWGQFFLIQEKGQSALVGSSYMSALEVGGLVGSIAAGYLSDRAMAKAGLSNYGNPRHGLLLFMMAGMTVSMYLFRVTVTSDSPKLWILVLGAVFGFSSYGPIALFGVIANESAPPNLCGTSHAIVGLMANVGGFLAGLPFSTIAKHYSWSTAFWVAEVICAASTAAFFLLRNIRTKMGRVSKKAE
T1 sequence (P35575 1-357 partner): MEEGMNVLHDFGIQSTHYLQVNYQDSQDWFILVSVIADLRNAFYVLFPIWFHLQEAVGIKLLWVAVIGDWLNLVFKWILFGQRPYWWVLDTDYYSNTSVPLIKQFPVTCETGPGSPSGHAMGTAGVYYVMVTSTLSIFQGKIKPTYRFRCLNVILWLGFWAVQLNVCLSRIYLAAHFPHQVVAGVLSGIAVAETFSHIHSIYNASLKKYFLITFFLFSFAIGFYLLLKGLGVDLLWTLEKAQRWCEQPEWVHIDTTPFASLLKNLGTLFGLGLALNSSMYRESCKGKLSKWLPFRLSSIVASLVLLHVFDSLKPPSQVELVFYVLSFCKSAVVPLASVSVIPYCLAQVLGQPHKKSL
Assay type: cell-based

With `O=C(/C=C/c1ccc(O)c(O)c1)O[C@@H]1C[C@](O)(C(=O)O)C[C@@H](O)[C@H]1O` [CHA, chlorogenic acid] the IC50 was 523 ± 210 µM.
